pIC50: −log10 of the molar value. Counter-ions that a name gives are not always drawn.
Target: T1, CRF receptors (Homo sapiens, UniProt P34998)
T1 sequence (P34998 24-415): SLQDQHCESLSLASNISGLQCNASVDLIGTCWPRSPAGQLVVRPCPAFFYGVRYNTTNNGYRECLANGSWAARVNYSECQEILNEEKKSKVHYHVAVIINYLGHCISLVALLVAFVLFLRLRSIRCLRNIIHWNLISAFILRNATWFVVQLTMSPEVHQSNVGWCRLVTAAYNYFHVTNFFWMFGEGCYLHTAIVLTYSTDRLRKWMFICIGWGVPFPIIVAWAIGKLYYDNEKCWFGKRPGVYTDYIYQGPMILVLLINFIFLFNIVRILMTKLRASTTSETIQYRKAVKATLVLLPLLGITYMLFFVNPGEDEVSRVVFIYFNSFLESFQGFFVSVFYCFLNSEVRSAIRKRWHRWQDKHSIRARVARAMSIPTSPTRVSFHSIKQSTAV
Assay: CRF receptor binding assay (125I-CRF displacement)
Details: membrane preparation, 125I-CRF 100 pM, room temperature 2 hours
Protocol: Assay for CRF Receptor Binding Activity
CRF receptor binding was performed using a modified version of the assay described by Grigoriadis and De Souza (Biochemical, Pharmacological, and Autoradiographic Methods to Study Corticotropin-Releasing Factor Receptors. Methods in Neurosciences, Vol. 5, 1991). Membrane pellets containing CRF receptors were resuspended in 50 mM Tris buffer pH 7.7 containing 10 mM MgCl2 and 2 mM EGTA and centrifuged for 10 minutes at 48000 g. Membranes were washed again and brought to a final concentration of 1500 μg/ml in binding buffer (Tris buffer above with 0.1% BSA, 0.15 mM bacitracin and 0.01 mg/ml aprotinin.). For the binding assay, 100 ul of the membrane preparation was added to 96 well microtube plates containing 100 μl of ^125I-CRF (SA 2200 Ci/mmol, final concentration of 100 pM) and 50 μl of drug. Binding was carried out at room temperature for 2 hours. Plates were then harvested on a Brandel 96 well cell harvester and filters were counted for gamma emissions on a Wallac 1205 Betaplate liquid scintillation counter. Non specific binding was defined by 1 μM cold CRF. IC50 values were calculated with the non-linear curve fitting program RS/1 (BBN Software Products Corp., Cambridge, Mass.).

Compound	pIC50
CCCN(CC1CC1)c1ncnc2c(-c3c(C)cc(C)cc3C)cn(C)c12 [Compound 1, N-cyclopropylmethyl-N-propyl-5-methyl-7-(2,4,6-trimethylphenyl)-5H-pyrrolo[3,2-d]pyrimidin-4-amine]	6.96
CCCCN(CC)c1ncnc2c(-c3c(C)cc(C)cc3C)cn(C)c12 [Compound 5, N-Butyl-N-Ethyl-5-methyl-7-(2,4,6trimethylphenyl)-5H-pyrrolo[3,2-d]pyrimidin-4-amine]	6.30

System: not given
Assay: not given
Details: not given

Compound	melting point [°C]
CCCN(CC1CC1)c1ncnc2c(-c3c(C)cc(C)cc3C)cn(C)c12 (as salt: HCl) [Compound 1, N-cyclopropylmethyl-N-propyl-5-methyl-7-(2,4,6-trimethylphenyl)-5H-pyrrolo[3,2-d]pyrimidin-4-amine]	205 to 207
CCCN(CCC)c1ncnc2c(-c3c(C)cc(C)cc3C)cn(C)c12 [Compound 2, N,N-Dipropyl-5-methyl-7-(2,4,6trimethylphenyl)-5H-pyrrolo[3,2-d]pyrimidin-4-amine]	116 to 118
CCCCN(CC)c1ncnc2c(-c3c(C)cc(C)cc3C)cn(C)c12 [Compound 5, N-Butyl-N-Ethyl-5-methyl-7-(2,4,6trimethylphenyl)-5H-pyrrolo[3,2-d]pyrimidin-4-amine]	126 to 128
Cc1cc(C)c(-c2cn(C)c3c(N4CCCCCC4)ncnc23)c(C)c1 [Compound 7, 4-(1-Homopiperidinyl)-5-methyl-7-(2,4,6-trimethylphenyl)-5H-pyrrolo[3,2-d]pyrimidine]	140 to 142
